Patent publication US5338858A, “Triazolyl, tetrazolyl and azido-substituted fatty acid analog enzyme substrates” (Washington University, priority 1992, dated 1994)
≈ marks a conversion by molar mass, not a printed value. Where two headings read alike, the source gives them in different places.

What was measured:
[1] = target: T1, yeast N-myristoyltransferase (Saccharomyces cerevisiae, UniProt P14743); experiment: in vitro yeast N-myristoyltransferase (NMT) assay, substrate activity of fatty acyl CoA derivatives; assay type: biochemical; conditions: peptide GSAASARR-NH2, 30° C., 10 minutes; normalized to myristoyl peptide of parallel assay
T1 sequence (P14743 1-455): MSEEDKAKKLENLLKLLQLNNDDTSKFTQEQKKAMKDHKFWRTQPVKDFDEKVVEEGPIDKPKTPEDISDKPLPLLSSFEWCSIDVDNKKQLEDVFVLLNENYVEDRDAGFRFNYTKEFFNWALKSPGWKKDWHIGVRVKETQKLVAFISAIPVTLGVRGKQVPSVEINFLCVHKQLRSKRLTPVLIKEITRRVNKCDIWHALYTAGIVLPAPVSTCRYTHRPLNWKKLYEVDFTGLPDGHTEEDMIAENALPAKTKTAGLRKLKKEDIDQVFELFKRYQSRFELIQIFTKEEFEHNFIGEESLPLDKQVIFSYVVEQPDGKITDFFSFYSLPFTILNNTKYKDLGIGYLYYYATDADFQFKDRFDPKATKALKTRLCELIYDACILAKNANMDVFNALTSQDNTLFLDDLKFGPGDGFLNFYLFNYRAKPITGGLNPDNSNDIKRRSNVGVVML
Protocol: A. Representative compounds prepared in the foregoing illustrative specific examples were analyzed in a conventional in vitro yeast N-myristoyltransferase (NMT) assay as published by Heuckeroth et al., Proc. Nat'l Acad. Sci. USA 85, 8795-8799 (1988). In this assay, the test compounds were first converted to their respective fatty acyl CoA derivatives and then tested as substrates for the yeast NMT.
The assay conditions [essentially the same as those reported by Towler and Glaser, Proc. Natl. Acad. Sci. USA 83, 2812-2816 (1986)] were as follows:
1. Ligase reaction: 3.3 μmoles fatty acid, 5 mM ATP and 1 mM CoA were incubated with 15-150 milliunits of CoA ligase (1 unit/ml in 50 mM HEPES, pH 7.3) in a buffer composed of 10 mM TRIS-HCl, pH 7.4, 1 mM dithiothreitol, 5 mM MgCl2 and 0.1 mM EGTA, in a total volume of 50 μl for 25 minutes at 30° C.
2. NMT assay: 50 μl of the CoA ligase mixture was added to a 50 μl solution of 90 μM peptide (GSAASARR-NH2) in a buffer composed of 10 mM TRIS-HCl, pH 7.4, 1 mM dithiothreitol, 0.01 mM EGTA and aprotinin (10 μg/ml). 0.4 Unit of yeast N-myristoyltransferase was then added and the reaction mixture was incubated at 30° C. for 10 minutes. The peptide was radiolabeled with tritiated alanine in position 3. The reaction was quenched with 120 μl of TCA-MeOH and 75 μl was injected on a reverse phase C18 HPLC column and eluted with a linear gradient of 0-100% acetonitrile over 100 minutes (both water and acetonitrile containing 0.1% trifluoroacetic acid). Radioactivity was assessed with an on line radiomatic detector corrected for quenching.
The amount of radioactivity was determined for each azido-substituted fatty acyl peptide product and then was normalized to the amount of myristoyl peptide produced in an assay run in parallel.

[2] = system: HIV-1; experiment: HIV inhibition assay of acutely infected CEM cells (MTT tetrazolium colorimetric, reduction of CPE); assay type: cell-based; conditions: for IC50 / inhibition at 1 µg/mL / inhibition at 10 µg/mL: Human immunodeficiency virus 1, CCRF-CEM, 168 h; for IC50: read-out: ID50 (inhibitory dose that inhibits 50% of the cytopathic effect); for inhibition at 1 µg/mL / inhibition at 10 µg/mL: read-out: Percent Reduction of CPE
Protocol: B. Representative compounds prepared in the foregoing illustrative specific examples were also tested in vitro for the assessment of anti-viral (HIV) activity as follows:
The HIV inhibition assay method of acutely infected cells is an automated tetrazolium based colorimetric assay adatped from that reported by Pauwles et al., J. Virol. Methods, 20, 309-321 (1988). Assays were performed in 96-well tissue culture plates. CEM cells were grown in RPMI-1640 medium (Gibco) supplemented with 10% fetal calf serum and were then treated with polybrene (2 μg/ml). An 80 μl volume of medium containing 1×10^4 cells was dispensed into each well of the tissue culture plate. To each well was added a 100 μl volume of test compound dissolved in tissue culture medium (or medium without test compound as a control) to achieve the desired final concentration and the cells were incubated at 37° C. for 1 hour. A frozen culture of HIV-1 was diluted in culture medium to a concentration of 5×10^4 TCID50 per ml (TCID50 =the dose of virus that infects 50% of cells in tissue culture), and a 20 μl volume of the virus sample (containing 1000 TCID50 of virus) was added to wells containing test compound and to wells containing only medium (infected control cells). […] Several wells received culture medium without virus (uninfected control cells). Likewise, the intrinsic toxicity of the test compound was determined by adding medium without virus to several wells containing test compound. In summary, the tissue culture plates contained the following tests (in triplicate):
In tests 2 and 4 the final concentrations of test compounds were 1, 10, 100 and 500 μg/ml. Azidothymidine (AZT) was tested as a positive drug control, and dodecanoic acid was tested as a negative fatty acid control. […] Under these conditions, DMSO had no significant effect on results as determined in controls.
Following the addition of virus, cells were incubated at 37° C. in a humidified, 5% CO2 atmosphere for 7 days. Additional aliquots of test compounds were added on days 2 and 5. On day 7 post-infection, the cells in each well were resuspended and a 100 μl sample of each cell suspension was removed for assay. A 20 μl volume of a 5 mg/ml solution of 3-(4,5-dimethylthiazol-2-yl)-2,5-diphenyltetrazolium bromide (MTT) was added to each 100 μl cell suspension, and the cells were incubated for 4 hours at 37° C. in a 5% CO2 environment. […] To each sample was added 100 μl of 10% sodium dodecylsulfate in 0.01 N HCl to lyse the cells and samples were incubated overnight. The absorbance of each sample was determined.at 590 nm using a Molecular Devices microplate reader. The % reduction of the virus induced cytopathic effect (CPE) by the test compounds was determined using the formula shown at the bottom of Table 2, hereinafter.
The results of the antiviral testing are set forth in Table 2, as percent reduction in cytopathic effect (CPE). The inhibitory dose that inhibits 50% of the cytopathic effect is shown as ID50 (μg/ml).
^a The percent reduction of viral CPE was calculated by the formula: […]

[3] = system: HIV-1; experiment: as above; assay type: cell-based; conditions: Human immunodeficiency virus 1, CCRF-CEM, 168 h, read-out: Percent Reduction of CPE
[4] = concentration 1 (μg/ml), CEM cells, HIV-1, 7 days
[5] = concentration 10 (μg/ml), CEM cells, HIV-1, 7 days

Molecule	Activity (% of Myristate) [1]	ID50 (inhibitory dose that inhibits 50% of the cytopathic effect) ([2]; CEM cells, HIV-1, 7 days)	IC50 ([2]; CEM cells, HIV-1, 7 days) [µg/mL]	inhibition at 1 µg/mL [2, 4] [%]	inhibition at 10 µg/mL [2, 5] [%]	other results
12-(Tetrazolyl)dodecanoic acid [Compound 46]	46 % of Myristate	5.9 µg/mL				Percent Reduction of CPE [2, 4]: 12%; Percent Reduction of CPE [2, 5]: 65%
COCCCCCCCCCCCC(=O)O [13-Oxamyristate, reference compound]			0.3 (≈ 1.3 µM)	66.4	43.5	
Cc1cn([C@H]2C[C@H](N=[N+]=[N-])[C@@H](CO)O2)c(=O)[nH]c1=O [AZT, Azidothymidine]			< 0.001			inhibition at 0.5 µg/mL [3]: 87.8%; inhibition at 0.001 µg/mL ([3]; 0.001 μg/ml, CEM cells, HIV-1, 7 days): 58.2%; inhibition at 0.01 µg/mL ([3]; 0.01 μg/ml, CEM cells, HIV-1, 7 days): 84.8%; inhibition at 0.1 µg/mL ([3]; 0.1 μg/ml, CEM cells, HIV-1, 7 days): 101%
[N-]=[N+]=NCCCCCCCCCCCC(=O)O [Compound 1, 12-Azidododecanoic acid]	142 % of Myristate		0.3 (≈ 1.24 µM)	81.7	38.2	
[N-]=[N+]=NCCCCCCCCCCC(=O)O [Compound 2, 11-Azidoundecanoic acid]	100 % of Myristate			16.3	34.6	
[N-]=[N+]=NCCCCCCCCC(=O)O [Compound 3, 9-Azidononanoic acid]	55 % of Myristate					
[N-]=[N+]=NCCCCCCSCCCCC(=O)O [Compound 13, 5-(1-Azido-hexane-6-thia)pentanoic acid]	103 % of Myristate	Inactive		0	14	
[N-]=[N+]=NCCCCCCCCCSCC(=O)O [Compound 19, 2-(1-Azido-nonane-9-thia)acetic acid]	17 % of Myristate		9.2 (≈ 35.5 µM)	1	54	
[N-]=[N+]=NCCCCCCCCSCCC(=O)O [Compound 23, 4-(1-Azido-octane-6-thia)propionic acid]	373 % of Myristate	Inactive				inhibition at 1 µg/mL [2]: 0%; inhibition at 10 µg/mL [2]: 0%
[N-]=[N+]=NCCOCCCCCCCCC(=O)O [Compound 40, 9-(1-Azido-ethane-2-oxa)nonanoic acid]	280 % of Myristate					
[N-]=[N+]=NCCCOCCCCCCCC(=O)O [Compound 41, 8-(1-Azido-propane-3-oxa)octanoic acid]	421 % of Myristate		5 (≈ 20.6 µM)	14	66	
[N-]=[N+]=NCCCCCCOCCCCC(=O)O [Compound 42, 5-(1-Azido-hexane-6-oxa)pentanoic acid]	622 % of Myristate	Inactive		4	20	
[N-]=[N+]=NCCCCCCCCCOCC(=O)O [Compound 43, 2-(1-Azido-nonane-9-oxa)acetic acid]	11 % of Myristate	Inactive				
O=C(O)CCCCCCCCCCCn1cncn1 [Compound 48]	23 % of Myristate		4.2 (≈ 15.7 µM)	24	66	
O=C(O)CCCCCCCCCCCn1nccn1 [Compound 50, 12-(N-2-[1,2,3]-Triazolyl)dodecanoic acid]	99 % of Myristate			19.5	30.8	
CCCCCCCCCC(=O)O [Decanoic acid, reference compound]						inhibition at 1 µg/mL [2]: 7.7%; inhibition at 10 µg/mL [2]: 11.3%
